Data taken from patent US9944654B2, “Nargenicin compounds and uses thereof as antibacterial agents” (priority 2014, dated 2018).
In brackets after ≈: the same amount, converted by molar mass. Where two headings read alike, the source gives them in different places.

Tests used:
[1] = target: T1, S. aureus DnaE (DNA polymerase III α-subunit homolog from Staphylococcus aureus) (Staphylococcus aureus, UniProt Q5HF71); assay: biochemical; assay type: biochemical
T1 construct: SaDnaE (S. aureus DnaE residues 1-1065); 6xHis (N); made in house; host or cells: E. coli BL21-AI
T1 sequence (Q5HF71 1-1065): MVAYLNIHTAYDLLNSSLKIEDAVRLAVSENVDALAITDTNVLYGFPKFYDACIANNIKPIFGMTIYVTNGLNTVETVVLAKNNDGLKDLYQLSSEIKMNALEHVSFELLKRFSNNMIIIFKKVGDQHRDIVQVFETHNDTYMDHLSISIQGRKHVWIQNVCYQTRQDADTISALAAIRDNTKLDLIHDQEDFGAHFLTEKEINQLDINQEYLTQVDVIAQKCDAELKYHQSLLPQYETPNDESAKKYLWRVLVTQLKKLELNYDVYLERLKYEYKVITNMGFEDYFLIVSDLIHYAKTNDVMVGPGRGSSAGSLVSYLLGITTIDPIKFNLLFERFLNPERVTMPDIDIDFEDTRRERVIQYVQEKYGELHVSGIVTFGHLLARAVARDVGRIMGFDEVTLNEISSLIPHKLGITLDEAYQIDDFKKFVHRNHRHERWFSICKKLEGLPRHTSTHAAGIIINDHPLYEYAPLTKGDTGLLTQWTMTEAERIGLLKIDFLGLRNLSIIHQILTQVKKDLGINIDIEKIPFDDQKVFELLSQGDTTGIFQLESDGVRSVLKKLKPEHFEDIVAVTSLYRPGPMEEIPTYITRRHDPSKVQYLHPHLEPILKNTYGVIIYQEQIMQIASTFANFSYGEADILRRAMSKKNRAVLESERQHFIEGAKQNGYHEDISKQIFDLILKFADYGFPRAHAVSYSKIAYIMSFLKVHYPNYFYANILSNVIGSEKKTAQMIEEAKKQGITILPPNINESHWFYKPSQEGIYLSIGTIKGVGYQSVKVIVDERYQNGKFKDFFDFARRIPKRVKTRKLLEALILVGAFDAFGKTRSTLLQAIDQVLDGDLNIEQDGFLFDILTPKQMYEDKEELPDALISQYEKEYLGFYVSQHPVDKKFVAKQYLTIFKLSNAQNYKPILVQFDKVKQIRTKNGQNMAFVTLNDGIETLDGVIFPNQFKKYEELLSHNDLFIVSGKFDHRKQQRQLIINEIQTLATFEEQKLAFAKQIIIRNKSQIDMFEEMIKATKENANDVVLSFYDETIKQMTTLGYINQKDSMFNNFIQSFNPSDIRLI
Procedure, shortened: (§1)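 His-tagged E. coli DnaE (residues 1-1160, 0.8 μg/ml) or S. aureus DnaE (residues 1-1065, 0.05 μg/ml) incubated 30 min at 30° C. with activated calf thymus DNA, 0.025 mM dATP/dGTP/dCTP and 0.011 mM 3H-dTTP in Tris pH 7.5/Mg acetate. TCA-precipitated labelled DNA counted.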

[2] = test system: Pseudomonas aeruginosa MB5890 (CB1101, efflux-deleted); assay: microbe, parasite or virus in culture; assay type: cell-based; settings: Pseudomonas aeruginosa, read-out: P. aeruginosa MB5890 efflux-del (MIC), MHII broth; * = some reduction of growth versus control at […]
[3] = test system: Escherichia coli MB5747 (LS 883, tolC); assay: microbe, parasite or virus in culture; assay type: cell-based; settings: Escherichia coli, read-out: E. coli LS883 tolC (MIC), MHII broth; * = some reduction of growth versus control at […]
[4] = test system: Staphylococcus aureus MB6266 (MRSA COL); assay: Nargenicin antibacterial assay (MIC), S. aureus; assay type: cell-based; settings: Staphylococcus aureus, MRSA, read-out: S. aureus COL (MIC), MHII broth + 50% human serum; * = some reduction of growth versus control at […]
[5] = target: T2, E. coli DnaE (DNA polymerase III α-subunit from Escherichia coli) (Escherichia coli, UniProt P10443); assay: In vitro DnaE single enzyme assay (E. coli); assay type: biochemical
T2 construct: EcDnaE (E. coli DnaE residues 1-1160); 6xHis (N); made in house; host or cells: E. coli BL21(DE3)
Procedure, shortened: as §1

[6] = test system: Streptococcus pneumoniae MB6357 (CL 2883); assay: Nargenicin antibacterial assay (MIC), S. pneumoniae; assay type: cell-based; settings: Streptococcus pneumoniae, read-out: S. pneumoniae MB2883 (MIC), Isosensitest broth; * = some reduction of growth versus control at […]
[7] = read-out: E. coli DnaE IC50 (converted)

T2 sequence (P10443 whole entry, the tested form may be a part): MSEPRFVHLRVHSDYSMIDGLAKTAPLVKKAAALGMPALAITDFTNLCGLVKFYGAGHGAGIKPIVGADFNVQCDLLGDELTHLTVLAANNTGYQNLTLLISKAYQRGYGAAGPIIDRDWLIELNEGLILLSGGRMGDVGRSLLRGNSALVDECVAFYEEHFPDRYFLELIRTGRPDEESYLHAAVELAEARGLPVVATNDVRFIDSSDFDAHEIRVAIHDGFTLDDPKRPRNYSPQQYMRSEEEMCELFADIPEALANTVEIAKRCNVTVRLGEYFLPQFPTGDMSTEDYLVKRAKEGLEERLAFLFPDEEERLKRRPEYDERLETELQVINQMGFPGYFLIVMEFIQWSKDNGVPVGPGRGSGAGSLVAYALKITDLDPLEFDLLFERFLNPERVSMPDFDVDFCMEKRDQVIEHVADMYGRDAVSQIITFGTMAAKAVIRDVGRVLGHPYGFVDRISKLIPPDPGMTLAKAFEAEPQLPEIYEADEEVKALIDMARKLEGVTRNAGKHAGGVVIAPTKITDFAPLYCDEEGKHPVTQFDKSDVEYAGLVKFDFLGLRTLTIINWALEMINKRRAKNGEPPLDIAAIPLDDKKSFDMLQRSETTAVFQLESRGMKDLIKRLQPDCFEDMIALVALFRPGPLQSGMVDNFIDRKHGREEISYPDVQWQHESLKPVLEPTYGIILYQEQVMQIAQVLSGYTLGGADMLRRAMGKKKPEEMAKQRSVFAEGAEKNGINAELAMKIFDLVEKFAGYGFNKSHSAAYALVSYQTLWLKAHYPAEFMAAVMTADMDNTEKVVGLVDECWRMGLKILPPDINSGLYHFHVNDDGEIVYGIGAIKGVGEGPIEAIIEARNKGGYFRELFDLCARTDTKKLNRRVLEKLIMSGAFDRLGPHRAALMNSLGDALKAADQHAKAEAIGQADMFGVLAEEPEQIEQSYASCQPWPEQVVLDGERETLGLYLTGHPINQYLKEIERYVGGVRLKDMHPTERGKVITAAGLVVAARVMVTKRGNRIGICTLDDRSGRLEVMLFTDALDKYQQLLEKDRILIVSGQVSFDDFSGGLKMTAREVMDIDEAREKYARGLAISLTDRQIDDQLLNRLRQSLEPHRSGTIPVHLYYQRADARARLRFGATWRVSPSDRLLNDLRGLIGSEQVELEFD

| SMILES | IC50 ([1]; S. aureus DnaE IC50) [nM] | MIC [2] [µg/mL] | MIC [3] [µg/mL] | MIC [4] [µg/mL] | IC50 [5, 7] [µM] | MIC [6] [µg/mL] | IC50 ([1]; read-out: S. aureus DnaE IC50 (converted)) [nM] | IC50 ([5]; E. coli DnaE IC50) [µM] |
| --- | --- | --- | --- | --- | --- | --- | --- | --- |
| CO[C@H]1C[C@H]2C=C[C@H]3[C@H]4O[C@]2(/C(C)=C/[C@@H](C)[C@@H]([C@@H](C)OC(N)=O)OC1=O)[C@@H]3[C@H](OC(N)=O)[C@@H](C)[C@H]4OC(=O)c1ccc[nH]1 [Example 4] | 1160 | > 128 | > 128 | > 128 | > 166 | > 128 |  |  |
| CO[C@H]1C[C@H]2C=C[C@H]3[C@H]4O[C@]2(/C(C)=C/[C@@H](C)[C@@H]([C@@H](C)O)OC1=O)[C@@H]3C(=O)[C@@H](C)[C@H]4OC(=O)c1ccc[nH]1 [Example 146, (3R,4S,7S,8aS,10aR,11R,12R,13S,14aR,14bS,E)-4-((R)-1-hydroxyethyl)-7-methoxy-1,3,13-trimethyl-6,14-dioxo-3,4,6,7,8,8a,10a,11,12,13,14,14a-dodecahydro-11,14b-epoxynaphtho[2,1-e]oxecin-12-yl 1H-pyrrole-2-carboxylate] | 1170 | > 128 | 128 (≈ 249 µM) | > 128 | > 195 | 128 (≈ 249 µM) |  |  |
| CO[C@H]1C[C@H]2C=C[C@H]3[C@H]4O[C@]2(/C(C)=C/[C@@H](C)[C@@H]([C@@H](C)O)OC1=O)[C@@H]3[C@H](O)[C@@H](C)[C@H]4OC(=O)c1cccn1C(C)=O [Example 203] | < 10.8 | 16 (≈ 28.7 µM) | < 0.125 | < 0.125 | 11.7 | 128 (≈ 230 µM) |  |  |
| CO[C@H]1CC2C=C[C@H]3[C@H]4O[C@]2(/C(C)=C/[C@@H](C)[C@@H](/C(C)=N\O)OC1=O)[C@@H]3[C@H](O)[C@@H](C)[C@H]4OC(=O)c1ccc[nH]1 (stereo partly drawn) [Example 180] | < 11.4 | 64 (≈ 121 µM) | 4 (≈ 7.57 µM) | 4 | 11.4 | 32 (≈ 60.5 µM) |  |  |
| CO[C@H]1C[C@H]2C=CC3C4[C@H](O)[C@@H](C)[C@@H](OC(=O)c5cc(NC(C)=O)c[nH]5)[C@@H]3O[C@]42/C(C)=C/[C@@H](C)[C@@H]([C@@H](C)O)OC1=O [Example 168, (3R,4S,7S,8aS,11R,12R,13R,14R,14bS,E)-14-hydroxy-4-((R)-1-hydroxyethyl)-7-methoxy-1,3,13-trimethyl-6-oxo-3,4,6,7,8,8a,10a,11,12,13,14,14a-dodecahydro-11,14b-epoxynaphtho[2,1-e]oxecin-12-yl 4-acetamido-1H-pyrrole-2-carboxylate] | 31400 | > 64 | > 128 | > 128 | > 87.3 | > 64 |  |  |
| CO[C@H]1CC2C=C[C@H]3[C@H]4O[C@]2(/C(C)=C/[C@@H](C)[C@@H]([C@@H](C)OC(=O)NCCO)OC1=O)[C@@H]3[C@H](O)[C@@H](C)[C@H]4OC(=O)c1ccc[nH]1 (stereo partly drawn) [Example 15] | < 9.96 | 128 (≈ 212 µM) | 4 (≈ 6.64 µM) | 8 | ~183 | > 128 |  |  |
| CO[C@H]1C[C@H]2C=C[C@H]3[C@H]4O[C@]2(/C(C)=C/[C@@H](C)[C@@H]([C@@H](C)OC(=O)C[N+]25CC[N+](CC(N)=O)(CC2)CC5)OC1=O)[C@@H]3[C@H](O)[C@@H](C)[C@H]4OC(=O)c1ccc[nH]1.O=S(=O)([O-])C(F)(F)F.[Br-] [Example 74] | < 6.28 | 32 | 0.5 | 0.5 | 20.9 | > 128 |  |  |
| CO[C@H]1C[C@H]2C=C[C@H]3[C@H]4O[C@]2(/C(C)=C/[C@@H](C)[C@@H]([C@@H](C)O)OC1=O)[C@@H]3[C@H](O)C(C)[C@@H]4NCCN1CCCCC1.O=C(O)C(F)(F)F (stereo partly drawn) [Example 156] |  | > 128 | > 128 | > 128 |  | > 128 | 32500 | > 155 |
